Reference: ChEMBL document CHEMBL5120880, “Peptidomimetics: An Overview of Recent Medicinal Chemistry Efforts toward the Discovery of Novel Small Molecule Inhibitors” (J Med Chem, 2022)
Converted amounts (≈) assume the structure as drawn.

Assays:
FaDu = experiment: Antitumor activity against human FaDu cells assessed as cell growth inhibition; assay type: functional, cell-based
Hep 3B2 = experiment: Antitumor activity against human Hep3B cells assessed as cell growth inhibition; assay type: functional, cell-based
BT-474 = experiment: Antitumor activity against human BT-474 cells assessed as cell growth inhibition; assay type: functional, cell-based
NALM-6 = experiment: Antitumor activity against human NALM-6 cells assessed as cell growth inhibition; assay type: functional, cell-based
HCC1954 = experiment: Antitumor activity against human HCC1954 cells assessed as cell growth inhibition; assay type: functional, cell-based
[1] = tested on: Middle East respiratory syndrome-related coronavirus; experiment: microbe, parasite or virus in culture
[2] = tested on: Middle East respiratory syndrome-related coronavirus; experiment: Antiviral activity against MERS-CoV by cell based assay; assay type: functional, organism-based
SARS-CoV-2 [3] = experiment: microbe, parasite or virus in culture; details: Severe acute respiratory syndrome coronavirus 2
[4] = tested on: Feline infectious peritonitis virus; experiment: microbe, parasite or virus in culture; details: Alphacoronavirus 1
SARS-CoV = experiment: microbe, parasite or virus in culture; details: Severe acute respiratory syndrome-related coronavirus
Murine hepatitis virus = experiment: microbe, parasite or virus in culture; details: Murine coronavirus
SARS-CoV-2 [5] = experiment: Antiviral activity against SARS-CoV-2 by cell based assay; assay type: functional, organism-based; details: Severe acute respiratory syndrome coronavirus 2
Hepatitis C virus [6] = experiment: Antiviral activity against HCV; assay type: functional, organism-based, Hepacivirus hominis
N2a = experiment: Antiproliferative activity against mouse N2a cells by MTT assay; assay type: functional, cell-based
HeLa = experiment: Antiproliferative activity against human HeLA cells by MTT assay; assay type: functional, cell-based
Escherichia coli = experiment: Antibacterial activity against Escherichia coli AG100 assessed as minimal inhibitory concentration; assay type: functional
[7] = target: T1, Enoyl-[acyl-carrier-protein] reductase [NADH] FabI (Escherichia coli K-12, UniProt P0AEK4); experiment: Inhibition of Escherichia coli […] assessed as measuring NADH consumption rate
T1 sequence (P0AEK4 whole entry): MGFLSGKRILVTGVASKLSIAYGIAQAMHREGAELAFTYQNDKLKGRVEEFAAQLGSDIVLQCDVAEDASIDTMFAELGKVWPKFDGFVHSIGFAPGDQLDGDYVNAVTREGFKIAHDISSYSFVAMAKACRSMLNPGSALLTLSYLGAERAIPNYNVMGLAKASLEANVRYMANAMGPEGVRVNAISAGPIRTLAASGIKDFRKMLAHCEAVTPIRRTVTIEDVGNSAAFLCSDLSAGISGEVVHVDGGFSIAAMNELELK

Acinetobacter baumannii = experiment: Antibacterial activity against Acinetobacter baumannii ATCC BAA1605 assessed as minimal inhibitory concentration; assay type: functional
Staphylococcus aureus = experiment: Antibacterial activity against Staphylococcus aureus ATCC 29213 assessed as minimal inhibitory concentration; assay type: functional
[8] = tested on: Klebsiella pneumoniae subsp. ozaenae; experiment: Antibacterial activity against Klebsiella pneumoniae A6030827 assessed as minimal inhibitory concentration; assay type: functional
[9] = Inhibition of Acinetobacter baumannii […] assessed as measuring NADH consumption rate
Hepatitis C virus [10] = experiment: Antiviral activity against HCV genotype 1b/6a NS5A infected in human Huh-7 cells by phenotypic assay; assay type: functional, organism-based, Hepacivirus hominis
Hepatitis C virus [11] = experiment: Antiviral activity against HCV genotype 1b/3a NS5A infected in human Huh-7 cells by phenotypic assay; assay type: functional, organism-based, Hepacivirus hominis

Work on `CCCCCCCCCCCCCCc1cccc(O[C@H]2C[C@@H](C(=O)NCC(c3ccccc3)c3ccccc3)N(C(=O)[C@@H](NC(=O)[C@H](C)NC)C(C)(C)C)C2)c1` yielded an EC50 (FaDu) of 1500 nM, an EC50 (Hep 3B2) of 2200 nM and an EC50 (BT-474) of 7000 nM. For the same compound, the EC50 (NALM-6) was 11100 nM and the EC50 (HCC1954) was 19800 nM.
Compound `CCCCC1CCC(OC(=O)N[C@@H](CC(C)C)C(=O)N[C@@H](C[C@H]2CCNC2=O)C(O)S(=O)(=O)O)CC1` (stereo not given in full) has an IC50 [1] of 130 nM, an EC50 [2] of 530 nM and an IC50 (SARS-CoV-2 [3]) of 1100 nM. For the same compound, the EC50 [4] was 170 nM, the IC50 (SARS-CoV) was 1000 nM and the EC50 (Murine hepatitis virus) was 130 nM.
`CC(C)C[C@H](NC(=O)OC1CCC(F)(F)CC1)C(=O)N[C@H](C=O)C[C@H]1CCNC1=O` gave an IC50 [1] of 70 nM, an IC50 (SARS-CoV-2 [3]) of 1500 nM and an EC50 [4] of 120 nM. The IC50 (SARS-CoV) was 2300 nM, the EC50 (Murine hepatitis virus) was 80 nM and the EC50 (SARS-CoV-2 [5]) was 110 nM.
`CC[C@@H]1[C@@H]2CN(C(=O)[C@H](C(C)(C)C)NC(=O)O[C@@H]3C[C@H]3CCCCC(F)(F)c3nc4ccc(OC)cc4nc3O2)[C@@H]1C(=O)N[C@]1(C(=O)NS(=O)(=O)C2(C)CC2)C[C@H]1C(F)F` showed an EC50 (Hepatitis C virus [6]) of 70 nM.
In the case of `O=C(Cc1ccccc1)NC1CC2CN(Cc3ccccc3)CC3C2CC=C(COC(=O)Cc2ccccc2)C13` (stereo not given), the EC50 (N2a) is reported as 2100 nM and the EC50 (HeLa) is reported as 10300 nM.
With `Cc1oc2c(N)cccc2c1CN(C)C(=O)/C=C/c1cnc2c(c1)CCC(N1CCCC1)C(=O)N2` (stereo not given) the MIC (Escherichia coli) was 8 µg/mL (≈ 16.9 µM), the IC50 [7] was less than 10 nM and the MIC (Acinetobacter baumannii) was no more than 4 µg/mL. The MIC (Staphylococcus aureus) was no more than 4 µg/mL.
For `Cc1c(CN(C)C(=O)/C=C/c2cnc3c(c2)CC[C@@H](N2CCCC2)C(=O)N3)oc2ccccc12`, the MIC [8] was no more than 4 µg/mL, the MIC (Escherichia coli) was no more than 4 µg/mL and the IC50 [7] was less than 10 nM. It also gave an IC50 [9] of less than 10 nM, an MIC (Acinetobacter baumannii) of no more than 4 µg/mL and an MIC (Staphylococcus aureus) of no more than 4 µg/mL.
With `COC(=O)N[C@@H](C(=O)N1CCC[C@H]1C(=O)Nc1cncc(-c2c3c(c(-c4cncc(NC(=O)[C@@H]5CCCN5C(=O)[C@H](NC(=O)OC)c5ccccc5)c4)c4c2C(C)(C)CC4)C(C)(C)CC3)c1)c1ccccc1` the EC50 (Hepatitis C virus [10]) was greater than 0.5 nM.
Work on `CCCC1CCC(OC(=O)N[C@@H](CC(C)C)C(=O)N[C@H](C=O)C[C@H]2CCNC2=O)CC1` (stereo not given in full) yielded an EC50 [2] of 50 nM, an IC50 (SARS-CoV-2 [3]) of 1600 nM and an EC50 [4] of 120 nM. The EC50 (Murine hepatitis virus) was 130 nM and the EC50 (SARS-CoV-2 [5]) was 100 nM.
`COC(=O)N[C@H](C(=O)N1CCC[C@H]1C(=O)Nc1cc2ccc1CCc1ccc(cc1NC(=O)[C@@H]1CCCN1C(=O)[C@@H](NC(=O)OC)C(C)C)CC2)C(C)C` showed an EC50 (Hepatitis C virus [6]) of 0.08 nM, an EC50 (Hepatitis C virus [11]) greater than 0.5 nM and an EC50 (Hepatitis C virus [10]) greater than 0.5 nM.
With `Cc1c(CN(C)C(=O)/C=C/c2cnc3c(c2)N[C@H](C)[C@H](N)C(=O)N3)oc2ccccc12` the MIC (Escherichia coli) was no more than 4 µg/mL, the IC50 [9] was less than 10 nM and the MIC (Acinetobacter baumannii) was no more than 4 µg/mL. It also gave an MIC (Staphylococcus aureus) of no more than 4 µg/mL.
For `CC(C)C[C@H](NC(=O)OCC1CCC(F)(F)CC1)C(=O)N[C@H](C=O)C[C@H]1CCNC1=O`, the EC50 [2] was 30 nM, the IC50 (SARS-CoV-2 [3]) was 900 nM and the EC50 [4] was 80 nM.
Compound `COC(=O)N[C@H](C(=O)N1CCC[C@@H]1c1ncc(-c2cccc(-c3c4c(c(-c5cccc(-c6cnc([C@@H]7CCCN7C(=O)[C@H](NC(=O)OC)c7ccccc7)[nH]6)c5)c5c3C(C)(C)CC5)C(C)(C)CC4)c2)[nH]1)c1ccccc1` has an EC50 (Hepatitis C virus [11]) of 0.053 nM.
`CCCCC1CCC(OC(=O)N[C@@H](CC(C)C)C(=O)N[C@H](C=O)C[C@H]2CCNC2=O)CC1` (stereo not given in full) gave an IC50 [1] of 150 nM, an IC50 (SARS-CoV-2 [3]) of 800 nM and an EC50 [4] of 220 nM. The IC50 (SARS-CoV) was 900 nM, the EC50 (Murine hepatitis virus) was 120 nM and the EC50 (SARS-CoV-2 [5]) was 100 nM.
In the case of `COC(=O)N[C@H](C(=O)N1CCC[C@H]1c1ncc(-c2ccc(-c3ccc(-c4cnc([C@@H]5CCCN5C(=O)[C@@H](NC(=O)OC)C(C)C)[nH]4)cc3)cc2)[nH]1)C(C)C`, the EC50 (Hepatitis C virus [11]) is reported as 0.105 nM and the EC50 (Hepatitis C virus [10]) is reported as 0.047 nM.
